Viability data for 66 compounds are collected here from publication PMC12040169 (PLOS Biology, 2025).

Usually viability stands for a read-out of living cells in per cent, often relative to untreated cells.

The nature of the series: in vitro. The following applies: human, hela cells, % viability.
For `COc1ccc(N2C(=S)N(Cc3cccs3)[C@H]3[C@@H](O)[C@H](O)C[C@@H](C(N)=O)[C@H]32)cc1` [CBK288929], the viability at 28.5 h, 10 µM is 93%. On to `NC(=O)[C@@H]1C[C@@H](O)[C@H](O)[C@H]2[C@@H]1N(c1ccc(Cl)cc1)C(=S)N2Cc1cccs1` [CBK288930], for which the viability at 28.5 h, 10 µM stood at 94.7%. With `CN1CCC(N2C[C@H](O)C[C@H]2c2nc(-c3ccc4c(c3)OCO4)no2)CC1` [CBK288931], the viability at 28.5 h, 10 µM was determined as 93.6%. On to `COc1ccc(CN2C(=S)N(c3ccc(OC)cc3)[C@H]3[C@@H]2[C@H]2OC(=O)[C@@H]3C[C@H]2O)cc1` [CBK288934], for which the viability at 28.5 h, 10 µM is 85.4%. With `COc1ccc(CN2C(=S)N(c3ccc(Cl)cc3)[C@H]3[C@@H]2[C@H]2OC(=O)[C@@H]3C[C@H]2O)cc1` [CBK288935] the figure was 99.8%. With `COc1ccc(CN2C(=S)N(c3ccccc3)[C@H]3[C@@H]2[C@H]2OC(=O)[C@@H]3C[C@H]2O)cc1` [CBK288937] the figure was 108%. On to `CC(C)CN1C(=S)N(Cc2ccc(-c3ccccn3)cc2)[C@H]2[C@H]3OC(=O)[C@H](C[C@H]3O)[C@H]21` [CBK288938], for which the viability at 28.5 h, 10 µM was 113%. As to `COc1ccc(N2C(=S)N(CC3CCCCC3)[C@H]3[C@H]4OC(=O)[C@H](C[C@H]4O)[C@H]32)cc1` [CBK288939], the viability at 28.5 h, 10 µM was 108%.

Consider `COc1ccc(CN2/C(=N/c3ccccc3)S[C@H]3[C@@H]2[C@@H](O)[C@H](O)C[C@@H]3C(N)=O)cc1` [CBK288941], for which the viability at 28.5 h, 10 µM turned out to be 102%.

Take `O=C([C@@H]1C[C@@H](O)[C@H](O)[C@@H]2NC(=S)N(c3ccc4c(c3)OCO4)[C@@H]21)N1CCCCC1` [CBK288945]: the viability at 28.5 h, 10 µM is 87.3%. As for `CN(Cc1ccccc1)C(=O)[C@H]1C[C@@H](O)[C@H](O)[C@@H]2N=C(Nc3ccc(Cl)cc3)S[C@@H]21` [CBK288949], the viability at 28.5 h, 10 µM was found to be 105%. As for `COc1ccc(NC2=N[C@H]3[C@@H](O)[C@H](O)C[C@H](C(=O)N(C)Cc4ccccc4)[C@H]3S2)cc1` [CBK288950], the viability at 28.5 h, 10 µM is 96.7%. With `Cc1ccc(NC2=N[C@H]3[C@@H](O)[C@H](O)C[C@H](C(=O)N4CCCCC4)[C@H]3S2)cc1` [CBK288951] the figure was 94.7%.

As to `OCc1ccc(CN2Cc3nc[nH]c3C[C@H]2c2nc(Cc3ccccc3)no2)o1` [CBK288955], the viability at 28.5 h, 10 µM was found to be 93.8%. In the case of `Cc1ccc(-c2noc([C@@H]3Cc4[nH]cnc4CN3C(=O)c3cccs3)n2)cc1` [CBK288957], the viability at 28.5 h, 10 µM came out at 82.2%.

In the case of `Cc1ccc(-c2noc([C@@H]3Cc4[nH]cnc4CN3C(=O)CCC(=O)O)n2)cc1` [CBK288958], the viability at 28.5 h, 10 µM is 96.3%. Then `O=C(Nc1ccc(Cl)cc1)N1Cc2nc[nH]c2C[C@H]1c1nc(-c2ccncc2)no1` [CBK288964], with 91.4%; and `COc1ccc(C(=O)N2Cc3nc[nH]c3C[C@H]2c2nc(-c3ccc(OC)cc3)no2)cc1` [CBK288966], with 107%; and `COc1ccc(-c2noc([C@@H]3Cc4[nH]cnc4CN3C(=O)CCC(=O)O)n2)cc1` [CBK288967], with 90.3%.

`COc1ccc(-c2noc([C@@H]3Cc4[nH]cnc4CN3C(=O)Nc3ccc(C)cc3)n2)cc1` [CBK288968]: the viability at 28.5 h, 10 µM came to 92.9%.

In the case of `CC(C)c1noc([C@@H]2Cc3[nH]cnc3CN2C(=O)Nc2ccccc2)n1` [CBK288969], the viability at 28.5 h, 10 µM was 86.5%.

`CC(=O)c1ccc(NC(=O)N2Cc3nc[nH]c3C[C@H]2c2nc(-c3ccc(F)cc3)no2)cc1` [CBK288971]: the viability at 28.5 h, 10 µM was 83.6%. With `CCNC(=O)N1Cc2nc[nH]c2C[C@H]1C(=O)NCc1ccc(OC)cc1` [CBK288973] the figure was 115%; with `CN1Cc2nc[nH]c2C[C@H]1C(=O)NCc1ccco1` [CBK288979], 88%.

In the case of `COc1ccc(CN2Cc3nc[nH]c3C[C@H]2C(=O)N2CCC(Cc3ccccc3)CC2)cc1` [CBK288980], the viability at 28.5 h, 10 µM amounted to 110%. As to `COC(=O)[C@@H]1Cc2ncn(Cc3ccc(Cl)cc3)c2CN1C(=O)c1ccc(OC)cc1` [CBK288983], the viability at 28.5 h, 10 µM turned out to be 84.2%. Turning to `COC(=O)[C@@H]1Cc2ncn(C(C)C)c2CN1S(=O)(=O)c1ccc(C#N)cc1` [CBK288986], the viability at 28.5 h, 10 µM turned out to be 84%. For `COC(=O)[C@@H]1Cc2ncn(C(C)C)c2CN1C(=O)c1ccccc1` [CBK288987], the viability at 28.5 h, 10 µM turned out to be 82.2%. `COC(=O)[C@@H]1Cc2ncn(C(C)C)c2CN1C(=O)C1CCCCC1` [CBK288989]: the viability at 28.5 h, 10 µM worked out at 98.9%. Consider `COC(=O)[C@@H]1Cc2ncn(C)c2CN1S(=O)(=O)c1ccc(C#N)cc1` [CBK288993], for which the viability at 28.5 h, 10 µM is 83.9%. On to `O=C(Nc1ccccc1)N1Cc2nc[nH]c2C[C@H]1c1nc(-c2ccccc2)no1` [CBK288997], for which the viability at 28.5 h, 10 µM came out at 84.3%.

In the case of `O=C(NC1CCCCC1)N1Cc2nc[nH]c2C[C@H]1c1nc(-c2ccc3c(c2)OCO3)no1` [CBK289000], the viability at 28.5 h, 10 µM was 95.7%. `CC(C)NC(=O)N1Cc2nc[nH]c2C[C@H]1c1nc(-c2ccc3c(c2)OCO3)no1` [CBK289001]: the viability at 28.5 h, 10 µM was found to be 94.5%.

Turning to `CC(C)NC(=O)CC[C@@H]1CNC(=O)[C@@H]2C[C@H](NC(=O)c3ccccc3)CN12` [CBK289002], the viability at 28.5 h, 10 µM is 90.9%. As for `O=C(Nc1cccc(Cl)c1)N[C@H]1C[C@H]2C(=O)NC[C@@H](CCC(=O)N3CCCC3)N2C1` [CBK289003], the viability at 28.5 h, 10 µM amounted to 96.1%. `O=C(CC[C@@H]1CNC(=O)[C@@H]2C[C@H](NC(=O)C3CC3)CN12)Nc1ccccc1` [CBK289006]: the viability at 28.5 h, 10 µM was found to be 113%. In the case of `O=C(N[C@H]1C[C@H]2C(=O)NC[C@@H](CCC(=O)N3CCCCC3)N2C1)c1cccc(F)c1` [CBK289011], the viability at 28.5 h, 10 µM was 85%. Regarding `CN1CCN(C(=O)CC[C@@H]2CNC(=O)[C@@H]3C[C@H](NC(=O)c4cccs4)CN23)CC1` [CBK289013], the viability at 28.5 h, 10 µM stood at 124%. Consider `CN1CCN(C(=O)CC[C@@H]2CNC(=O)[C@@H]3C[C@H](NC(=O)c4ccccc4)CN23)CC1` [CBK289014], for which the viability at 28.5 h, 10 µM is 86.7%. Take `CN1CCN(C(=O)CC[C@@H]2CNC(=O)[C@@H]3C[C@H](NC(=O)c4cccc(F)c4)CN23)CC1` [CBK289015]: the viability at 28.5 h, 10 µM was found to be 92.2%.

For `COC(=O)CC[C@H]1CNC(=O)[C@@H]2[C@@H](CCN2C)N1C` [CBK289020], the viability at 28.5 h, 10 µM came to 95.4%. On to `CN1[C@@H](CCC(=O)NCc2ccc(F)cc2)CNC(=O)[C@@H]2[C@H]1CCN2C1CCOCC1` [CBK289023], for which the viability at 28.5 h, 10 µM is 106%.

In the case of `CC(C)N1CC[C@@H]2[C@H]1C(=O)NC[C@H](CCC(=O)NCc1ccc(F)cc1)N2C` [CBK289024], the viability at 28.5 h, 10 µM amounted to 91.4%. As to `CC(C)N1CC[C@@H]2[C@H]1C(=O)NC[C@H](CCC(=O)Nc1ccccc1)N2C` [CBK289030], the viability at 28.5 h, 10 µM is 86.1%. Regarding `CN1[C@@H](CCC(=O)N2CCN(c3ccccn3)CC2)CNC(=O)[C@H]2NCC[C@H]21` [CBK289031], the viability at 28.5 h, 10 µM came to 95.2%. With `C#CCNC(=O)CC[C@H]1CNC(=O)[C@@H]2[C@@H](CCN2Cc2cccs2)N1C` [CBK289033] the figure was 103%; with `C#CCNC(=O)CC[C@H]1CNC(=O)[C@@H]2[C@@H](CCN2Cc2ccccc2)N1C` [CBK289034], 101%; with `C#CCNC(=O)CC[C@H]1CNC(=O)[C@@H]2[C@@H](CCN2CC(C)(C)C)N1C` [CBK289035], 95.1%.

With `COC[C@H]1CCCN1C(=O)CC[C@H]1CNC(=O)[C@@H]2[C@@H](CCN2C2CCOCC2)N1C` [CBK289037], the viability at 28.5 h, 10 µM came out at 90.9%.

`CC1(C)C[C@H](NC2CCOCC2)[C@@]2(CCC(=O)N3CCOCC3)CC[C@](C)(O)C[C@@H]12` [CBK289041]: the viability at 28.5 h, 10 µM is 91.6%. On to `CC1(C)C[C@H](NC(=O)c2cccs2)[C@@]2(CCC(=O)N3CCCC3)CC[C@](C)(O)C[C@@H]12` [CBK289042], for which the viability at 28.5 h, 10 µM came to 122%. With `COCC(=O)N[C@H]1CC(C)(C)[C@@H]2C[C@@](C)(O)CC[C@]12CCC(=O)N1CCCC1` [CBK289043] the figure was 88.4%; with `CC1(C)C[C@H](NC(=O)C2CC2)[C@@]2(CCC(=O)N3CCCC3)CC[C@](C)(O)C[C@@H]12` [CBK289044], 88.1%. `CC1(C)C[C@H](NC(=O)c2ccccc2)[C@@]2(CCC(=O)NC3CC3)CC[C@](C)(O)C[C@@H]12` [CBK289045]: the viability at 28.5 h, 10 µM stood at 92.6%. `CC1=C[C@@H](CNC(=O)NC(C)C)[C@H](C(C)C)C[C@H]1CC(=O)N1CCN(C)CC1` [CBK289047]: the viability at 28.5 h, 10 µM is 100%. As to `CC1=C[C@@H](CNC(=O)Nc2ccccc2)[C@H](C(C)C)C[C@H]1CC(=O)N1CCN(C)CC1` [CBK289048], the viability at 28.5 h, 10 µM is 121%. As to `CC1=C[C@@H](CNS(C)(=O)=O)[C@H](C(C)C)C[C@H]1CC(=O)N1CCOCC1` [CBK289050], the viability at 28.5 h, 10 µM came out at 89.3%. Turning to `CCNC(=O)NC[C@@H]1C=C(C)[C@H](CC(=O)N2CCOCC2)C[C@H]1C(C)C` [CBK289051], the viability at 28.5 h, 10 µM is 102%.

On to `COc1ccc(CN2C(=O)CO[C@H]3CN(c4nccc(C)n4)C[C@H]32)cc1` [CBK289056], for which the viability at 28.5 h, 10 µM worked out at 86.1%. In the case of `CC(=O)Nc1ccc([C@@H](O)[C@H]2COCC(=O)N2C)cc1` [CBK289059], the viability at 28.5 h, 10 µM came out at 97.7%. With `O=C(Nc1ccc([C@@H](O)[C@H]2COCC(=O)N2Cc2ccc(F)cc2)cc1)c1ccccc1` [CBK289061] the figure was 86.1%. With `O=C(N[C@@H]1CNCCC[C@H]1O)c1ccc(OCc2ccccc2)cc1` [CBK289064] the figure was 100%; with `O=C(N[C@@H]1CNCCC[C@H]1O)c1ccc(OCCN2CCOCC2)cc1` [CBK289065], 98.3%; with `CCNC(=O)N1CCC[C@@H](O)[C@H](NC(=O)c2ccc(OC)cc2)C1` [CBK289066], 88.2%.

Take `COc1ccc(C(=O)N2C[C@@H]3C[C@H](C2)c2ccc(NC(=O)C4CC4)c(=O)n2C3)cc1` [CBK289072]: the viability at 28.5 h, 10 µM was 90%. As for `N#Cc1ccc(C(=O)Nc2ccc3n(c2=O)C[C@H]2C[C@@H]3CN(C(=O)c3ccccc3)C2)cc1` [CBK289073], the viability at 28.5 h, 10 µM was 109%.
